The target in series [1] is T1, ATX (Homo sapiens, UniProt Q13822). The note with it: LPC assay; cited from earlier work.
A short description of another series: Solubility (Table S1). The conditions noted are these: YES/NO.
The target of series [2] is T2, mouse ATX (Mus musculus, UniProt Q9R1E6).
T2 construct: purchased Sino Biological
Description: Mode of inhibition, modified Amplex assay, Lineweaver-Burk plots. Format: biochemical. The note with it: various LPC and inhibitor concentrations. On the procedure:
Lastly, to get insight into the mode of inhibition of the new ATX inhibitors developed in the present study, the Lineweaver–Burk plots were performed.
To determine the mode of inhibition of ATX by each inhibitor, a modified Amplex assay was employed. […] Mouse ATX from Sino Biological was used in all mode of inhibition assays. Thereafter, the velocity (V) of the reaction was calculated and the reciprocal of velocity (1/V) was plotted against the reciprocal of substrate concentration (1/S) in Lineweaver–Burk graphs using GraphPad Software (GraphPad Software, San Diego, CA, USA).

Series [3] deals with T1, ATX. Description: IC50 Eleanna (Table S2, method not described). The format is biochemical.
For series [4], the target named is T2, mouse ATX. Put plainly: Amplex Red Lyso-phospholipase D assay, mouse ATX. The format is biochemical. On the procedure:
All compounds proposed were assessed for their ATX inhibitory activity in vitro using the Amplex Red assay. The Amplex Red Lyso-phospholipase D assay is a fluorometry-based assay providing a sensitive method for measuring Lyso-phospholipase D (ATX) activity in vitro. In this enzyme-coupled assay, ATX activity is monitored indirectly using 10-acetyl-3,7-dihydrophenoxazine (Amplex Red reagent), a sensitive fluorogenic probe for H2O2. ATX initially cleaves the Lysophosphatidylcholine (LPC) substrate to yield choline and Lysophosphatidic acid (LPA), while choline gets subsequently oxidized by choline oxidase to betaine and H2O2. Lastly, H2O2, in the presence of horseradish peroxidase (HRP), reacts with Amplex Red reagent in a 1:1 stoichiometry to generate the highly fluorescent product resorufin.
The inhibition assay was performed as previously described with some modifications in order to accommodate the newly-discovered lag phase in ATX kinetics. To this end, and in order to provide adequate time to the hydrolysis of LPC by ATX, we added a 30min incubation period between ATX, inhibitors and LPC. Briefly, 2 μL of different concentrations of inhibitors diluted in DMSO (Sigma-Aldrich, St. Louis, MO, USA) were incubated with 50 µL of ATX 8 nM (human or mouse ATX from Sino Biological), and 48 µL reaction buffer (50 mM Tris-Cl pH 8.0 from Thermo Fisher Scientific, Waltham, MA, USA and 5 mM CaCl2 from Honeywell-Fluka, Charlotte, NC, USA) in a black 96-well microplate for 15 min at 37 °C. Thence, another 50 µL of reaction buffer with 200 μM LPC substrate 16:0 (Avanti Polar Lipids Inc, Alabaster, AL, USA) (final concentrations of LPC and ATX are 50 µM and 2 nM, respectively) was added to the reaction mixture and incubated for 30 min at 37 °C in order for ATX to convert LPC to LPA and choline. Finally, 50 µL of working solution containing 200 μM Amplex Red (Invitrogen, Carlsbad, CA, USA), 4 U/mL HRP (Sigma-Aldrich, St. Louis, MO, USA), 0.4 U/mL choline oxidase (Sigma-Aldrich, St. Louis, MO, USA) in 50 mM Tris-HCl pH 8.0 and 5 mM CaCl2 was added to measure the produced choline. The reaction was monitored at 37 °C in a fluorescence plate reader using excitation at 530 nm and reading at 590 nm, every 5 min for 30 min. The velocity of the reaction and the remaining activity of ATX were calculated at the linear phase of the reaction and dose-response inhibition graphs were plotted with GraphPad Software (GraphPad Software, San Diego, CA, USA). […] In order to evaluate a possible effect of the compounds on the second (choline oxidase) and third (HRP) enzymes of the Amplex Red assay, we also performed the assay in the absence of ATX but in the presence of the compounds. Instead of ATX, we added choline chloride at a final concentration of 2 µM so as the second and third steps of the assay could proceed normally.

The target of series [5] is T1, ATX. Put plainly: Amplex Red Lyso-phospholipase D assay, human ATX. Further details: purchased Sino Biological. The format is biochemical. The note with it: for inhibition at 30 µM: read-out: %inhibition at 30uM.
Another series addresses phosphodiesterase (PDE). Description: Phosphodiesterase (PDE) colorimetric assay, 3',5'-cAMP and 3',5'-cGMP as substrates. Format: biochemical. The note with it: for activity against PDE: in words. An excerpt: This colorimetric assay kit uses 3′,5′-cAMP and 3′,5′-cGMP as substrates, and it is useful for the screening of inhibitors of nucleotide phosphodiesterase activity.

The target of series [6] is T1, ATX. The conditions noted are these: cited from earlier work.
The mark [7] stands for this setting: Table S2, read-out: IC50 Eleanna.
Setting [8] is: recombinant mouse ATX 2 nM, LPC 16:0 substrate, Amplex Red, read-out: IC50 mATX.
The mark [9] stands for this setting: in vitro IC50 (Sino hATX 2nM), Table S2, Sino hATX 2nM.
Setting [10] is: in vitro IC50 (hATX 1nM), Table S2, hATX 1nM.
Setting [11] is: recombinant human ATX 2 nM, LPC 16:0 substrate, Amplex Red, read-out: IC50 hATX.

Like-named read-outs stand apart in the source and are kept apart here.

Take `CCCCCCCCCCCCCC(=O)Nc1ccc(CP(=O)(O)O)cc1` [Compound S32826]: the IC50 on ATX [1] was 0.0056 µM.

Turning to `CCOC(=O)c1sc(SCc2ccccc2)c2c1CC(c1ccc(C)cc1)CC2O` (centres unmarked) [KM03601, ethyl 3-benzylsulfanyl-4-hydroxy-6-(4-methylphenyl)-4,5,6,7-tetrahydro-2-benzothiophene-1-carboxylate], in “Solubility (Table S1)”, the Solubility entry was “YES”. Further, on mouse ATX [2], the “Mode of Inhibition” value is recorded as “competitive”. In addition, the IC50 on ATX [3] (setting [7]) turned out to be 0.5 µM; on mouse ATX [4] (in vitro IC50 (mATX 2nM), Table S2, mATX 2nM) it was 15 µM; at mouse ATX [4] (setting [8]), 14.9 µM; at ATX [5] (setting [9]), 30.6 µM; at ATX [5] (setting [10]), 10 µM; at ATX [5] (setting [11]), 30.5 µM. The inhibition at 30 µM at ATX [5] (Table S2, at 30uM) amounted to 43.6%.

On to `CCOC(=O)c1c(CN2CCCCC2)n(Cc2ccccc2)c2cc(Br)c(O)cc12` [KM-14, ethyl 1-benzyl-6-bromo-5-hydroxy-2-(piperidin-1-ylmethyl)-1H-indole-3-carboxylate], for which the “Mode of Inhibition” value at mouse ATX [2] was “mixed”. Besides, the IC50 turned out to be 0.8 µM against ATX [3], 5.9 µM on mouse ATX [4] and 13.8 µM against ATX [5]. For the same molecule, the inhibition at 30 µM at ATX [5] was found to be 69%.

Take `CCOC(=O)C1CCN(C(=O)Cc2c(Sc3ccc(Cl)cc3)[nH]c3ccccc23)CC1` [KM-24, ethyl 1-[2-[2-(4-chlorophenyl)sulfanyl-1H-indol-3-yl]acetyl]piperidine-4-carboxylate]: at mouse ATX [2], the “Mode of Inhibition” value is “mixed”. For the same molecule, the IC50 on ATX [3] (setting [7]) came out at 0.5 µM; on mouse ATX [4] (setting [8]), 6.5 µM; at ATX [5] (setting [11]), 14.6 µM. Moreover, on ATX [5] (Table S2, at 30uM), the inhibition at 30 µM stood at 69.8%.

For `COc1cccc(NC(=S)N2CCn3cccc3C2c2ccc(OC)c(OC)c2)c1` (centres unmarked) [KM-26, 1-(3,4-dimethoxyphenyl)-N-(3-methoxyphenyl)-3,4-dihydro-1H-pyrrolo[1,2-a]pyrazine-2-carbothioamide], on mouse ATX [2], the “Mode of Inhibition” value is “competitive”. Moreover, the IC50 on ATX [3] (setting [7]) was 0.8 µM; on mouse ATX [4] (setting [8]), 7.4 µM; on ATX [5] (setting [11]) it was 5.6 µM; at phosphodiesterase (PDE), 2.8 µM. The inhibition at 30 µM at ATX [5] (Table S2, at 30uM) amounted to 83.3%. In addition, in the series with phosphodiesterase (PDE), the “activity against PDE” value was “outstanding activity”.

As for `Cc1cccc(C)c1NC(=O)CSc1nc2ccccc2c(=O)n1CCc1cccs1` [KM-28, N-(2,6-dimethylphenyl)-2-[4-oxo-3-(2-thiophen-2-ylethyl)quinazolin-2-yl]sulfanylacetamide], the IC50 on ATX [3] (setting [7]) worked out at 2 µM; at mouse ATX [4] (setting [8]) it was 3 µM; at ATX [5] (setting [9]), 1.85 µM; on ATX [5] (setting [11]) it was 1.8 µM; against phosphodiesterase (PDE) it was 0.9 µM. The inhibition at 30 µM on ATX [5] (Table S2, at 30uM) was 84.2%. Besides, in the series on phosphodiesterase (PDE), the “activity against PDE” value is “outstanding activity”.

Consider `N[C@@H](Cc1c[nH]cn1)C(=O)O` [L-Histidine], for which the “IC50 (ATX inhibition)” value on ATX [6] is given as “millimolar range”.

In the case of `O=C(CCN1CCN(C(=O)OCc2cc(Cl)cc(Cl)c2)CC1)c1ccc2[nH]c(=O)oc2c1` [PF-8380, 3,5-Dichlorobenzyl 4-(3-oxo-3-(2-oxo-2,3-dihydrobenzo[d]oxazol-6-yl)propyl)piperazine-1-carboxylate, reference compound], the Solubility result in the series “Solubility (Table S1)” was “YES”. Moreover, the “Mode of Inhibition” value on mouse ATX [2] is “competitive”. The same molecule gave an IC50 against phosphodiesterase (PDE) of 0.0011 µM.

As for `Cc1[nH]c2ccccc2c1C1=CCN(S(=O)(=O)c2cccc3nsnc23)CC1` [SC-41, 4-{[4-(2-Methyl-1H-indol-3-yl)-3,6-dihydropyridin-1(2H)-yl]sulfonyl}-2,1,3-benzothiadiazole], on mouse ATX [2], the “Mode of Inhibition” value was “uncompetitive”. The results for the IC50 on ATX [3] (setting [7]), on mouse ATX [4] (setting [8]) and at ATX [5] (setting [11]) were 2.3 µM, 4 µM and 13.6 µM, respectively. Besides, the inhibition at 30 µM on ATX [5] (Table S2, at 30uM) came to 70.6%.

For the molecule `O=C(Nc1c2c(nn1-c1ccc([N+](=O)[O-])cc1)CSC2)c1cccc2ccccc12` [SC-49, N-[2-(4-nitrophenyl)-4,6-dihydrothieno[3,4-c]pyrazol-3-yl]naphthalene-1-carboxamide], the IC50 amounted to 0.2 µM at ATX [3]; 9.7 µM against mouse ATX [4]; 10.2 µM at ATX [5] (IC50 hATX, recombinant human ATX 2 nM, LPC 16:0 substrate, Amplex Red); 10.2 µM at ATX [5] (setting [9]); 9 µM against ATX [5] (setting [10]). At ATX [5], the inhibition at 30 µM was determined as 65.8%. Also, the “activity against PDE” value with phosphodiesterase (PDE) was “outstanding activity”.

As to `O=C1Nc2ccccc2/C1=C/c1cc2ccccc2n1S(=O)(=O)c1ccccc1` [SCR01013, (3Z)-3-[[1-(Benzenesulfonyl)indol-2-yl]methylidene]-1H-indol-2-one], the Solubility result in “Solubility (Table S1)” is on record as “YES”. Further, the IC50 amounted to 0.6 µM at ATX [3] (setting [7]), 67 µM at mouse ATX [4] (setting [8]), 43 µM against ATX [5] (setting [10]) and 79 µM on ATX [5] (setting [11]). For the same molecule, the inhibition at 30 µM at ATX [5] (Table S2, at 30uM) amounted to 13.2%.

The record behind these values is publication PMC7582705, “Structure-Based Discovery of Novel Chemical Classes of Autotaxin Inhibitors” (International Journal of Molecular Sciences, 2020).
